Measurements from PubChem BioAssay AID2060603 (Molecular Pharmacology Branch, DTP, NCI, 2025).
Where “and” joins values, the source holds several entries; their conditions need not be identical. Equal values may be shown once.

System: 422866-222-R5-J1-PDC spheroid viability
Test: Anticancer human tumor 422866-222-R5-J1-PDC patient-derived pancreatic adenocarcinoma cell line growth inhibition [CLK]
Details: spheroids with HUVEC and MSC; for viability, T/C: stronger effect = lower value
Outline: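 Multi-cell-type spheroids combined patient-derived tumor cells with HUVEC endothelial cells and human mesenchymal stem cells. Paired agents were dosed in half-log steps down from about clinical Cmax, or from 10 microM where Cmax was unknown.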

[1] = curve of first compound, second compound 0.0316 µM
[2] = curve of first compound, second compound 0.1 µM
[3] = curve of first compound, second compound 0.316 µM
[4] = curve of first compound, second compound 1 µM
[5] = curve of first compound, second compound 3.16 µM
[6] = curve of first compound, second compound 10 µM
[7] = second compound 0.0316 µM, first compound 0.00316 µM
[8] = second compound 0.0316 µM, first compound 0.01 µM
[9] = second compound 0.0316 µM, first compound 0.0316 µM
[10] = second compound 0.0316 µM, first compound 0.1 µM
[11] = second compound 0.0316 µM, first compound 0.316 µM
[12] = second compound 0.0316 µM, first compound 1 µM
[13] = second compound 0.1 µM, first compound 0.00316 µM
[14] = second compound 0.1 µM, first compound 0.01 µM
[15] = second compound 0.1 µM, first compound 0.0316 µM
[16] = second compound 0.1 µM, first compound 0.1 µM
[17] = second compound 0.1 µM, first compound 0.316 µM
[18] = second compound 0.1 µM, first compound 1 µM
[19] = second compound 0.316 µM, first compound 0.00316 µM
[20] = second compound 0.316 µM, first compound 0.01 µM
[21] = second compound 0.316 µM, first compound 0.0316 µM
[22] = second compound 0.316 µM, first compound 0.1 µM
[23] = second compound 0.316 µM, first compound 0.316 µM
[24] = second compound 0.316 µM, first compound 1 µM
[25] = second compound 1 µM, first compound 0.00316 µM
[26] = second compound 1 µM, first compound 0.01 µM
[27] = second compound 1 µM, first compound 0.0316 µM
[28] = second compound 1 µM, first compound 0.1 µM
[29] = second compound 1 µM, first compound 0.316 µM
[30] = second compound 1 µM, first compound 1 µM
[31] = second compound 3.16 µM, first compound 0.00316 µM
[32] = second compound 3.16 µM, first compound 0.01 µM
[33] = second compound 3.16 µM, first compound 0.0316 µM
[34] = second compound 3.16 µM, first compound 0.1 µM
[35] = second compound 3.16 µM, first compound 0.316 µM
[36] = second compound 3.16 µM, first compound 1 µM
[37] = second compound 10 µM, first compound 0.00316 µM
[38] = second compound 10 µM, first compound 0.01 µM
[39] = second compound 10 µM, first compound 0.0316 µM
[40] = second compound 10 µM, first compound 0.1 µM
[41] = second compound 10 µM, first compound 0.316 µM
[42] = second compound 10 µM, first compound 1 µM
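Also: spheroids exposed to agents for seven days before readout.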

For C=CC(=O)Nc1cc(Nc2nccc(-c3cn(C)c4ccccc34)n2)c(OC)cc1N(C)CCN(C)C, the viability, T/C (compound 0.000949 µM) was 117% and 87.2%, the viability, T/C (compound 0.003 µM) was 106% and 102% and the viability, T/C (compound 0.00949 µM) was 83% and 85%. The viability, T/C (compound 0.03 µM) was 93.5% and 83.8%, the viability, T/C (compound 0.0949 µM) was 82.8% and 69% and the viability, T/C (compound 0.3 µM) was 74.9% and 72.9%. It also gave an IC50 (curve of compound) of over 300 nM.

COc1c(OCCCN2CCOCC2)ccc2c3n(c(=NC(=O)c4cnc(N)nc4)nc12)CCN3 + CNC(=O)c1ccc(Nc2nc(OC3CCCC3)c3c(-c4ccc5nc(C)oc5c4)c[nH]c3n2)c(OC)c1 was tested, and the IC50 [1] was 11.9 nM, the IC50 [2] was 16.8 nM and the IC50 [3] was 11.8 nM. It also gave an IC50 [4] of under 3.16 nM, an IC50 [5] of 8.5 nM and an IC50 [6] of under 3.16 nM. For the same compound, the viability, T/C [7] was 83.3%, the viability, T/C [8] was 51.5% and the viability, T/C [9] was 39.9%. The viability, T/C [10] was 26.8%, the viability, T/C [11] was 28.4% and the viability, T/C [12] was 30.3%. It also gave a viability, T/C [13] of 72.2%, a viability, T/C [14] of 60% and a viability, T/C [15] of 37.7%. The viability, T/C [16] was 32.1%, the viability, T/C [17] was 26.7% and the viability, T/C [18] was 33.4%. For the same compound, the viability, T/C [19] was 62.8%, the viability, T/C [20] was 53.6% and the viability, T/C [21] was 29.5%. The viability, T/C [22] was 23.9%, the viability, T/C [23] was 25.7% and the viability, T/C [24] was 32.9%. It also gave a viability, T/C [25] of 50.1%, a viability, T/C [26] of 47.1% and a viability, T/C [27] of 33.5%. The viability, T/C [28] was 27.6%, the viability, T/C [29] was 25.9% and the viability, T/C [30] was 36.8%. For the same compound, the viability, T/C [31] was 57.6%, the viability, T/C [32] was 48.7% and the viability, T/C [33] was 31.9%. It also gave a viability, T/C [34] of 25.4%, a viability, T/C [35] of 28.6% and a viability, T/C [36] of 36.1%. It also gave a viability, T/C [37] of 47.2%, a viability, T/C [38] of 43.3% and a viability, T/C [39] of 35.5%. For the same compound, the viability, T/C [40] was 28%, the viability, T/C [41] was 33.5% and the viability, T/C [42] was 36.1%.

CC(C)CC(NC(=O)C(Cc1ccccc1)NC(=O)c1cnccn1)B(O)O (centres undefined) was tested, and the viability, T/C (compound 0.000949 µM) was 95.5% and 91.7%, the viability, T/C (compound 0.003 µM) was 64.7% and 73.9% and the viability, T/C (compound 0.00949 µM) was 16.9% and 26.7%. For the same compound, the viability, T/C (compound 0.03 µM) was 2.66% and 2.25%, the viability, T/C (compound 0.0949 µM) was 0.86% and 0.8% and the viability, T/C (compound 0.3 µM) was 2.88% and 1.33%. For the same compound, the IC50 (curve of compound) was 4.28 nM and 5.36 nM.

With CC(Nc1ccc2c(c1)OCCn1cc(N3C(=O)OCC3C(F)F)nc1-2)C(N)=O (centres undefined) the viability, T/C (compound 0.0316 µM) was 76.1% and 62.1%, the viability, T/C (compound 0.1 µM) was 67.9% and 53.8% and the viability, T/C (compound 0.316 µM) was 46.1% and 36.7%. The viability, T/C (compound 1 µM) was 42.5% and 38.5%, the viability, T/C (compound 3.16 µM) was 34.2% and 31.7% and the viability, T/C (compound 10 µM) was 32% and 27.6%. For the same compound, the IC50 (curve of compound) was 308 nM and 113 nM.

With CNC(=O)c1ccc(Nc2nc(OC3CCCC3)c3c(-c4ccc5nc(C)oc5c4)c[nH]c3n2)c(OC)c1 the viability, T/C (compound 0.0316 µM) was 99.4% [middle of 12 runs], the viability, T/C (compound 0.1 µM) was 93.4% [middle of 12 runs] and the viability, T/C (compound 0.316 µM) was 70.8% [middle of 12 runs]. For the same compound, the viability, T/C (compound 1 µM) was 68.3% [middle of 12 runs], the viability, T/C (compound 3.16 µM) was 74.5% [middle of 12 runs] and the IC50 (compound alone, run of 08/15/2023) was over 10000 nM.

CN1CCN(c2cc(C(=O)Nc3cc4cc(-c5cnn(C)c5)ccc4cn3)ccn2)CC1 was tested, and the viability, T/C (compound 1 µM) was 25.8% [middle of 12 runs], the viability, T/C (compound 3.16 µM) was 11% [middle of 12 runs] and the viability, T/C (compound 10 µM) was 2.14% [middle of 12 runs]. The IC50 (compound alone, run of 08/14/2023) was 650 nM [middle of 12 runs].

In the case of COc1c(OCCCN2CCOCC2)ccc2c3n(c(=NC(=O)c4cnc(N)nc4)nc12)CCN3 + CN1CCN(c2cc(C(=O)Nc3cc4cc(-c5cnn(C)c5)ccc4cn3)ccn2)CC1, the IC50 [1] is reported as 22 nM, the IC50 [2] is reported as 26.3 nM and the IC50 [3] is reported as 22.6 nM. For the same compound, the IC50 [4] was under 3.16 nM, the IC50 [5] was under 3.16 nM and the IC50 [6] was under 3.16 nM. The viability, T/C [7] was 99.3%, the viability, T/C [8] was 65.7% and the viability, T/C [9] was 43.5%. It also gave a viability, T/C [10] of 33.2%, a viability, T/C [11] of 28.9% and a viability, T/C [12] of 33.4%. It also gave a viability, T/C [13] of 92.2%, a viability, T/C [14] of 73.2% and a viability, T/C [15] of 46.9%. The viability, T/C [16] was 31.6%, the viability, T/C [17] was 32.2% and the viability, T/C [18] was 34.5%. It also gave a viability, T/C [19] of 92.8%, a viability, T/C [20] of 63% and a viability, T/C [21] of 46.1%. The viability, T/C [22] was 35.5%, the viability, T/C [23] was 30.3% and the viability, T/C [24] was 37.6%. For the same compound, the viability, T/C [25] was 33.7%, the viability, T/C [26] was 33.4% and the viability, T/C [27] was 21.6%. The viability, T/C [28] was 25.6%, the viability, T/C [29] was 18% and the viability, T/C [30] was 23.8%. The viability, T/C [31] was 9.85%, the viability, T/C [32] was 13.6% and the viability, T/C [33] was 11.9%. The viability, T/C [34] was 10.2%, the viability, T/C [35] was 10.4% and the viability, T/C [36] was 9.8%. The viability, T/C [37] was 3.74%, the viability, T/C [38] was 4.24% and the viability, T/C [39] was 3.81%. It also gave a viability, T/C [40] of 1.77%, a viability, T/C [41] of 5.18% and a viability, T/C [42] of 3.72%.

With CCN1CCN(Cc2ccc(Nc3ncc(F)c(-c4cc(F)c5nc(C)n(C(C)C)c5c4)n3)nc2)CC1 the viability, T/C (compound 0.00316 µM) was 99.5% and 74%, the viability, T/C (compound 0.01 µM) was 84% and 78.8% and the viability, T/C (compound 0.0316 µM) was 87% and 73.9%. For the same compound, the viability, T/C (compound 0.1 µM) was 82.6% and 59.1%, the viability, T/C (compound 0.316 µM) was 80.8% and 66.4% and the viability, T/C (compound 1 µM) was 98.7% and 90.2%. It also gave an IC50 (curve of compound) of over 1000 nM.

O=c1[nH]cc(F)c(=O)[nH]1 was tested, and the viability, T/C (compound 0.0316 µM) was 101% and 102%, the viability, T/C (compound 0.1 µM) was 95.5% and 95.8% and the viability, T/C (compound 0.316 µM) was 91.1% and 85.6%. For the same compound, the viability, T/C (compound 1 µM) was 98% and 85.2%, the viability, T/C (compound 3.16 µM) was 65.5% and 77.1% and the viability, T/C (compound 10 µM) was 90.2% and 74.7%. It also gave an IC50 (curve of compound) of over 10000 nM.
